Assay results: patent publication US8093231B2, “Sulfonylethyl phosphorodiamidates” (Telik, Inc., priority 2004, dated 2012)

Experiments:
Assay type in all cases: cell-based, human
[1] = test system: MX-1 (breast carcinoma); assay: Cytotoxicity/growth inhibition assay, MX-1; conditions: MX-1 cells, 3 days culture, CellTiter-Glo, 0.1-200 μM tested; read-out: IC50 (MX-1)
Description: (§1) The human cancer cell lines DLD-1 (colorectal adenocarcinoma), LNCap (prostate carcinoma), and OVCAR-3 (ovarian carcinoma) were obtained from the American Type Culture Collection, Manassas, Va., U.S.A., and HL-60 (promyeloid myelocytic leukemia), MX-1 (breast carcinoma), P388, and P388ADR from the National Cancer Institute, Bethesda, Md., U.S.A. Carboplatin, doxorubicin, and melphalan were obtained from Sigma-Aldrich Chemical Company, St. Louis, Mo., U.S.A. The CellTiter-Glo assay kit was obtained from Promega Corporation, Madison, Wis., U.S.A., and the Cellular DNA Cytometric Analysis Reagent Kit from Roche Diagnostics Corporation, Indianapolis, Ind., U.S.A. Lambda DNA was obtained from New England Biolabs, Beverly, Mass., U.S.A., and SYBR-Gold from Molecular Probes, Inc., Eugene, Oreg., U.S.A. The DNeasy Tissue Kit was obtained from Qiagen Inc., Valencia, Calif., U.S.A., and AmpliTaq Gold DNA polymerase and PCR reagents from Applied Biosystems, Foster City, Calif., U.S.A. All products were used in accordance with manufacturer's directions. All assays were conducted in triplicate wells, with dimethyl sulfoxide (DMSO) solvent control. The extent of cell growth was expressed as a percentage of the signal from the solvent control wells.
(§2) Log-phase cells were trypsinized, collected by centrifugation, and resuspended in a small volume of fresh medium, and the density of viable cells was determined following Trypan Blue staining. Cells were diluted in fresh media (3×10^3 cells/mL for MX-1, 3×10^3 cells/mL for DLD-1, and 6×10^3 cells/mL for LNCap cells), the test compounds (concentrations between 0.1 and 200 μM, dissolved in DMSO, 50 μL) added immediately after dilution to achieve a final DMSO concentration of 0.5%, then the suspensions added at 150 μL/well to 96-well plates, and incubated for several hours to allow attachment in the case of adherent cells. The cells were cultured for approximately three doubling times (3 days for MX-1 and 4 days for DLD-1 and LNCap). The cells were then collected by centrifugation, and 100 μL of the culture supernatant was replaced by the CellTiter-Glo reagent. After incubation for 15 minutes at room temperature, and the plate was read with a luminometer.

[2] = test system: DLD-1 (colorectal adenocarcinoma); assay: Cytotoxicity/growth inhibition assay, DLD-1; conditions: DLD-1 cells, 4 days culture, CellTiter-Glo, 0.1-200 μM tested; read-out: IC50 (DLD-1)
Description: as §1, §2

[3] = test system: LNCap (prostate carcinoma); assay: Cytotoxicity/growth inhibition assay, LNCap; conditions: LNCap cells, 4 days culture, CellTiter-Glo, 0.1-200 μM tested; read-out: IC50 (LNCap)
Description: as §1, §2

Compound	IC50 [1] [µM]	IC50 [2] [µM]	IC50 [3] [µM]
O=P(OCCS(=O)(=O)CCOCCS(=O)(=O)CCOP(=O)(N(CCCl)CCCl)N(CCCl)CCCl)(N(CCCl)CCCl)N(CCCl)CCCl [Compound 8B]	10.9	6.5	28
O=C(O)c1ncccc1S(=O)(=O)CCOP(=O)(N(CCCl)CCCl)N(CCCl)CCCl [Compound 126A]	20.3	6.7	126
COC(=O)c1ccc(CS(=O)(=O)CCOP(=O)(N(CCCl)CCCl)N(CCCl)CCCl)cc1 [Compound 140A]	11.9	5.9	23.3
O=C(c1ccc(CS(=O)(=O)CCOP(=O)(N(CCCl)CCCl)N(CCCl)CCCl)cc1)N1CCC(O)C1 (stereo not drawn) [Compound 165A]	21.9	8	114
O=P(OCCS(=O)(=O)Cc1cccc(C(F)(F)F)c1)(N(CCCl)CCCl)N(CCCl)CCCl [Compound 133A]	2.7	2.6	8.2
CC(C)CCS(=O)(=O)CCOP(=O)(N(CCCl)CCCl)N(CCCl)CCCl [Compound 9A]	5.8	5.9	17.3
O=P(OCCS(=O)(=O)CCOCCOCCS(=O)(=O)CCOP(=O)(N(CCCl)CCCl)N(CCCl)CCCl)(N(CCCl)CCCl)N(CCCl)CCCl [Compound 9B]	6	6.1	25.5
O=P(OCCS(=O)(=O)CCS(=O)(=O)CCOP(=O)(N(CCCl)CCCl)N(CCCl)CCCl)(N(CCCl)CCCl)N(CCCl)CCCl [Compound 1B]	4	2.5	5.1
CC(C)(C)OC(=O)NCC(=O)Nc1cccc(CS(=O)(=O)CCOP(=O)(N(CCCl)CCCl)N(CCCl)CCCl)c1 [Compound 144A]	5.7	4	17.9
O=C(CS(=O)(=O)CCOP(=O)(N(CCCl)CCCl)N(CCCl)CCCl)Nc1ccc([N+](=O)[O-])cc1 [Compound 20A]	4.3	2.8	3.6
N[C@@H](CCS(=O)(=O)CCOP(=O)(N(CCCl)CCCl)N(CCCl)CCCl)C(=O)O [Compound 77A]	21.3	8	140
COC(=O)[C@H](CS(=O)(=O)CCOP(=O)(N(CCCl)CCCl)N(CCCl)CCCl)NS(=O)(=O)c1ccccc1 [Compound 80A]	27.1	10.7	80.2
N[C@@H](CS(=O)(=O)CCOP(=O)(N(CCCl)CCCl)N(CCCl)CCCl)C(=O)NCCO [Compound 88A]	17.9	9.5	126
NC(=O)C1CCN(C(=O)c2ccc(CS(=O)(=O)CCOP(=O)(N(CCCl)CCCl)N(CCCl)CCCl)cc2)CC1 [Compound 170A]	31.4	10.8	≥ 200
O=P(OCCS(=O)(=O)CCCCS(=O)(=O)CCOP(=O)(N(CCCl)CCCl)N(CCCl)CCCl)(N(CCCl)CCCl)N(CCCl)CCCl [Compound 4B]	4.1	2.9	11.5
O=C(O)CCS(=O)(=O)CCOP(=O)(N(CCCl)CCCl)N(CCCl)CCCl [Compound 29A]	23	11.5	66.4
N[C@@H](CCCNC(=O)CS(=O)(=O)CCOP(=O)(N(CCCl)CCCl)N(CCCl)CCCl)C(=O)O [Compound 32A]	41.2	11.3	177
O=C(CS(=O)(=O)CCOP(=O)(N(CCCl)CCCl)N(CCCl)CCCl)Nc1ccccn1 [Compound 24A]	11.2	5.5	12.1
Nc1cccc(CS(=O)(=O)CCOP(=O)(N(CCCl)CCCl)N(CCCl)CCCl)c1 [Compound 141A]	17.3	12.9	45.9
O=P(OCCS(=O)(=O)Cc1cccc(CS(=O)(=O)CCOP(=O)(N(CCCl)CCCl)N(CCCl)CCCl)c1)(N(CCCl)CCCl)N(CCCl)CCCl [Compound 14B]	2.3	3.2	5.7
O=C(O)[C@H](CS(=O)(=O)CCOP(=O)(N(CCCl)CCCl)N(CCCl)CCCl)NS(=O)(=O)c1ccccc1 [Compound 103A]	18.2	14.5	151

Compound	IC50 [1] [µM]	IC50 [2] [µM]	IC50 [3] [µM]
CN(CC(=O)O)C(=O)CS(=O)(=O)CCOP(=O)(N(CCCl)CCCl)N(CCCl)CCCl [Compound 34A]	9	12	97.2
CC(C)(C)OC(=O)N[C@@H](CS(=O)(=O)CCOP(=O)(N(CCCl)CCCl)N(CCCl)CCCl)C(=O)NCCO [Compound 86A]	25.1	10.3	73.5
O=P(OCCS(=O)(=O)Cc1cccc[n+]1[O-])(N(CCCl)CCCl)N(CCCl)CCCl [Compound 182A]	8	7.1	22.3
COc1ccc(S(=O)(=O)CCOP(=O)(N(CCCl)CCCl)N(CCCl)CCCl)cc1 [Compound 115A]	5.3	4.1	18.5
O=P(OCCS(=O)(=O)c1cccc(C(F)(F)F)c1)(N(CCCl)CCCl)N(CCCl)CCCl [Compound 116A]	3.1	2.2	6.6
CCS(=O)(=O)CCOP(=O)(N(CCCl)CCCl)N(CCCl)CCCl [Compound 1A]	16.9	9.1	57.1
C=CS(=O)(=O)CCOP(=O)(N(CCCl)CCCl)N(CCCl)CCCl [Compound 2A]	3.2	1.4	105
CC(C)(C)OC(=O)N[C@@H](CS(=O)(=O)CCOP(=O)(N(CCCl)CCCl)N(CCCl)CCCl)C(=O)N1CCOCC1 [Compound 83A]	12.9	6.7	27.8
O=P(OCCS(=O)(=O)Cc1ccc(F)cc1)(N(CCCl)CCCl)N(CCCl)CCCl [Compound 132A]	6.1	5	16.3
O=P(OCCS(=O)(=O)c1ccc(Cl)cc1)(N(CCCl)CCCl)N(CCCl)CCCl [Compound 108A]	3.3	2.3	6.4
O=P(OCCS(=O)(=O)c1ccncc1)(N(CCCl)CCCl)N(CCCl)CCCl [Compound 120A]	7.1	3.6	12.2
CS(=O)(=O)N[C@@H](CS(=O)(=O)CCOP(=O)(N(CCCl)CCCl)N(CCCl)CCCl)C(=O)N1CCOCC1 [Compound 96A]	30.2	9.6	81
CC(C(C)S(=O)(=O)CCOP(=O)(N(CCCl)CCCl)N(CCCl)CCCl)S(=O)(=O)CCOP(=O)(N(CCCl)CCCl)N(CCCl)CCCl (stereo not drawn) [Compound 2B]	≥ 200	0.3	10.9
Cc1c(O)c(CO)c(CS(=O)(=O)CCOP(=O)(N(CCCl)CCCl)N(CCCl)CCCl)c[n+]1[O-] [Compound 184A]	28.9	5.3	94.8
NC(=O)c1ccc(CS(=O)(=O)CCOP(=O)(N(CCCl)CCCl)N(CCCl)CCCl)cc1 [Compound 162A]	7.1	4.7	55.1
O=P(OCCS(=O)(=O)C1CCCC1)(N(CCCl)CCCl)N(CCCl)CCCl [Compound 10A]	14.4	7.7	43
O=P(OCCS(=O)(=O)CCCS(=O)(=O)CCOP(=O)(N(CCCl)CCCl)N(CCCl)CCCl)(N(CCCl)CCCl)N(CCCl)CCCl [Compound 3B]	7.4	4.3	14.8
O=P(OCCS(=O)(=O)c1ccc(Cl)c(Cl)c1)(N(CCCl)CCCl)N(CCCl)CCCl [Compound 112A]	1	0.8	6.3
CS(=O)(=O)N[C@@H](CS(=O)(=O)CCOP(=O)(N(CCCl)CCCl)N(CCCl)CCCl)C(=O)NCc1ccccc1 [Compound 95A]	21.3	9.9	46.6
CN(C)C(=O)c1ccc(CS(=O)(=O)CCOP(=O)(N(CCCl)CCCl)N(CCCl)CCCl)cc1 [Compound 155A]	2.6	10.7	42.4
O=C(c1ccc(CS(=O)(=O)CCOP(=O)(N(CCCl)CCCl)N(CCCl)CCCl)cc1)N1CCOCC1 [Compound 154A]	5.5	5.8	26.2
